From ChEMBL document CHEMBL1201862, “PubChem BioAssay data set” (2004)
Calls of active or inactive are those of the source.

Experiments:
[1] = molecular target: T1, Zinc finger protein mex-5 (Caenorhabditis elegans, UniProt Q9XUB2); test: MEX-5/TCR-2 RNA interaction inhibitors, dose response, biochemical, C. elegans, fluorescence polarization (AID 1960)
T1 sequence (Q9XUB2 whole entry): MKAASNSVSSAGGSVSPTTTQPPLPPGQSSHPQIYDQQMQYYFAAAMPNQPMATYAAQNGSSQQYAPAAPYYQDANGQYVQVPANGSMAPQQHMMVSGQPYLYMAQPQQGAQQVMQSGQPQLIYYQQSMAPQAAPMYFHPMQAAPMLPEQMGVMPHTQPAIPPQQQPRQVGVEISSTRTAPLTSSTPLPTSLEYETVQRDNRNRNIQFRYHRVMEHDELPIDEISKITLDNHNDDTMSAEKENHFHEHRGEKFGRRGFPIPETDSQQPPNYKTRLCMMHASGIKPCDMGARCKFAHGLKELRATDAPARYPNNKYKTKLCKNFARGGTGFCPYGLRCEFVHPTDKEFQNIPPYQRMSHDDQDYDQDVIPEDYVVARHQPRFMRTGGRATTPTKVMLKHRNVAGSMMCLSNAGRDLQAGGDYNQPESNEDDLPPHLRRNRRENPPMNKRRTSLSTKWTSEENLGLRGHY

Estrogen receptor = Estrogen receptor (Homo sapiens, UniProt P03372);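 further: potency for inhibiting coactivator peptide recruitment to the receptor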
Chain of Estrogen receptor (P03372 whole entry): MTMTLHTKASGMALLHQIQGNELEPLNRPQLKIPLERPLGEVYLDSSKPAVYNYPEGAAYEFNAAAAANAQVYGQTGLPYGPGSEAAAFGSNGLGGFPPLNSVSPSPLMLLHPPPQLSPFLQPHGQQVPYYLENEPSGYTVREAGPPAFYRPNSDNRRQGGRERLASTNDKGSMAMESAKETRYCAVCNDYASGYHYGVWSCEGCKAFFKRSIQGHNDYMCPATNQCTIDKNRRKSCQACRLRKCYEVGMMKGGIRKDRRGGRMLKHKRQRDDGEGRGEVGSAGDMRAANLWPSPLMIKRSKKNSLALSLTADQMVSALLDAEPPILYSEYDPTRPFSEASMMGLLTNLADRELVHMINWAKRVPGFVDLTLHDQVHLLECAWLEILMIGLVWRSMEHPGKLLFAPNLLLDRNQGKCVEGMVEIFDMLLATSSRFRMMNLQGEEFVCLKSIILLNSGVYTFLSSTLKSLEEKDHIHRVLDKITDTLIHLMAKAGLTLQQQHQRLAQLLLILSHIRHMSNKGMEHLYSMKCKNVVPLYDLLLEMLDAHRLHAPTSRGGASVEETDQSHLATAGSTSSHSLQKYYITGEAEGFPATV

Estrogen receptor beta [2] = molecular target: T2, Estrogen receptor beta (Homo sapiens, UniProt Q92731); test: ERβ–SRC-3 coactivator interaction inhibitors, confirmation, orthogonal assay, biochemical, ELISA, streptavidin-HRP readout (AID 1060)
T2 sequence (Q92731 whole entry): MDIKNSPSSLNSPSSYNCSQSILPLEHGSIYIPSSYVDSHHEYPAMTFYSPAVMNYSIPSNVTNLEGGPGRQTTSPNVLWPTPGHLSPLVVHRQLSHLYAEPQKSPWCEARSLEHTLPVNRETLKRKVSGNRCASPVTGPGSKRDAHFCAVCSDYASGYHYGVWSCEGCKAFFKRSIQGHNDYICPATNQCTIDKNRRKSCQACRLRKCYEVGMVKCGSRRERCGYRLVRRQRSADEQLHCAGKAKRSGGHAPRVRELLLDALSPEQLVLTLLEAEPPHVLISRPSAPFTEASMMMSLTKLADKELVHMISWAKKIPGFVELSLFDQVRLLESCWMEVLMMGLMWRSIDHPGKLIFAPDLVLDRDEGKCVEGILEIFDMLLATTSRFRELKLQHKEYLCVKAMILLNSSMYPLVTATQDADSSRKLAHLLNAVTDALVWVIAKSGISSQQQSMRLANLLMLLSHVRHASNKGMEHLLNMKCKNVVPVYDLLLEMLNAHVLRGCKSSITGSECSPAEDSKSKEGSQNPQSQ

Estrogen receptor beta [3] = molecular target: T2, Estrogen receptor beta
Bcl-2-like protein 10 = molecular target: T3, Bcl-2-like protein 10 (Homo sapiens, UniProt Q9HD36); test: displacers of TR3 peptide from Bcl-B, primary screen, selectivity assay for Bfl-1 inhibitor project, biochemical, fluorescence polarization, FITC-TR3 peptide (AID 748);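 further: fluorescence polarization from a fluorescein-labelled TR3 peptide binding purified Bcl-B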
T3 sequence (Q9HD36 whole entry): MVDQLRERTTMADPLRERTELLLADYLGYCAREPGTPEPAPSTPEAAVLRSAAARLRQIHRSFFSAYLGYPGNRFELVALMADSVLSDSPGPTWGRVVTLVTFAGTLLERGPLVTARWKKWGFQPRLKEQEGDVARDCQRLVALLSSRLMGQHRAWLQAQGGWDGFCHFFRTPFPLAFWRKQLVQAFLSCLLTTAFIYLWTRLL

[4] = enhancers of respiration in Yfh1-depleted yeast, dose response, Friedreich's ataxia, plus single-dose screen (AID 1465); type: functional;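 further: yeast depleted of Yfh1p frataxin homolog grown on glycerol needing respiration; WST-1 tetrazolium dye reduction as measure of cellular dehydrogenase metabolic activity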
[5] = HEp-2 cell cytotoxicity, dose response, cytotoxicity control for RSV inhibitor project, HTS (AID 2410); type: functional; conditions: human respiratory syncytial virus
[6] = molecular target: FAD-linked sulfhydryl oxidase ALR (Homo sapiens, UniProt P55789); test: inhibitors of human ALR sulfhydryl oxidase, dose response, biochemical, H2O2 detection, luminescence, cherry-pick (AID 493248)
Chain of FAD-linked sulfhydryl oxidase ALR (P55789 whole entry, the tested form may be a part): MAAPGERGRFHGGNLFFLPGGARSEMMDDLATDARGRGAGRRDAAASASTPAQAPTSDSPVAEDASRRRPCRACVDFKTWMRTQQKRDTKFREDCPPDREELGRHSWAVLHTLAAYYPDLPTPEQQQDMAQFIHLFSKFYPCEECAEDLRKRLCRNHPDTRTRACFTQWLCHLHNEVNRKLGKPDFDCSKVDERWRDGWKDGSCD

[7] = Fluorescence-based cell-based high throughput dose response assay for inhibitors of the interaction of nucleotide-binding oligomerization domain containing 2 (NOD2) and the receptor-interacting serine-threonine kinase 2 (RIPK2).; type: functional; conditions: Homo sapiens
INS1 = test: beta cell apoptosis inhibitors, cytokine rescue, dose response, luminescence, retest (AID 449756); type: functional, cell-based; conditions: Rattus norvegicus;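 further: cell death triggered by IL-1 beta plus TNF-alpha plus IFN-gamma mixture; protective hits raise ATP signal compared with cytokine alone wells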
[8] = LGR2 antagonists, dose response, cell-based, HEK293, CRE-luciferase reporter, cherry pick, set 2 (AID 743343); type: functional;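 further: transfected cells were stimulated with diluted bursicon conditioned medium after compound addition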
[9] = HEK293 cell cytotoxicity, dose response, cytotoxicity control, plate reader, cherry-picked samples (AID 743446); type: functional, cell-based
[10] = molecular target: T4, Sphingosine 1-phosphate receptor 4 (Homo sapiens, UniProt O95977); test: Late stage fluorescence dose response cell-based screening assay for antagonists of the Sphingosine 1-Phosphate Receptor 4 (S1P4). [Related pubchem assays: 1524 (Confirmation screen (S1P4 antagonists).), 1510 (Primary screen (S1P4 antagonists).), 1853 (Summary AID (S1P4 antagonists).), 1692 (Dose response screen (S1P4 antagonists).)]; type: functional
T4 sequence (O95977 whole entry): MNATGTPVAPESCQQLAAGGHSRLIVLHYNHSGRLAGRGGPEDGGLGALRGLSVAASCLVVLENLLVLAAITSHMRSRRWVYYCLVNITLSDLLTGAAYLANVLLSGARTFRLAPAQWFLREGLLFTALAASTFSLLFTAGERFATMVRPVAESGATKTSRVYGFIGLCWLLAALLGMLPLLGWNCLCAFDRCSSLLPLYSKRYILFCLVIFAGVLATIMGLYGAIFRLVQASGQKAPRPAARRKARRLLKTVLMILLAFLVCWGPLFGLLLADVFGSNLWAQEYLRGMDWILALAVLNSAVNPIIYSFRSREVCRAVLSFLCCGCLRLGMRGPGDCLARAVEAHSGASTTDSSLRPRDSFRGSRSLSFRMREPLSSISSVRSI

[11] = molecular target: Sphingosine 1-phosphate receptor 1 (Homo sapiens, UniProt P21453); type: functional;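 further: Tango beta-arrestin reporter U2OS cells stimulated with S1P near its EC80; inhibitor potency meaning antagonism of receptor activation by the natural agonist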
Chain of Sphingosine 1-phosphate receptor 1 (P21453 whole entry): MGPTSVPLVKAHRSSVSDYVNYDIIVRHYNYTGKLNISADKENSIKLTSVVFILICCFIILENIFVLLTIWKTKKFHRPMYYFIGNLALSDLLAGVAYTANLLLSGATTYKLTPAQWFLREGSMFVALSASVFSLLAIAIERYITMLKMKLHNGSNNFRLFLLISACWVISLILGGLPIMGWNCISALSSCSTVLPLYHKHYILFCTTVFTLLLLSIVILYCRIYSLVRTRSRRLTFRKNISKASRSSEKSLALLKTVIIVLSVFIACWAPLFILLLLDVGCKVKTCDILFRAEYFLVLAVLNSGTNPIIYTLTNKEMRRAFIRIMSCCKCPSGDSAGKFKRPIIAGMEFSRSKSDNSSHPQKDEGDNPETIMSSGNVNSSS

[12] = molecular target: T4, Sphingosine 1-phosphate receptor 4; test: Fluorescence dose response cell-based high throughput screening assay for antagonists of the Sphingosine 1-Phosphate Receptor 4 (S1P4). [Related pubchem assays: 1524 (Confirmation in triplicates.), 1510 (Primary screen.)]; type: functional
[13] = A549 cell cytotoxicity, dose response, cytotoxicity control, plate reader, cherry-pick, antagonist series (AID 743412); type: functional, cell-based
Paired box protein Pax-8 = Paired box protein Pax-8 (Homo sapiens, UniProt Q06710); test: inhibitors of PAX8-driven TPO luciferase reporter, dose response, RMG-I cells, cherry-pick (AID 687027); type: functional, cell-based;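 further: luciferase reporter driven by Pax8 target thyroperoxidase promoter measured by SteadyGlo luminescence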
Chain of Paired box protein Pax-8 (Q06710 whole entry): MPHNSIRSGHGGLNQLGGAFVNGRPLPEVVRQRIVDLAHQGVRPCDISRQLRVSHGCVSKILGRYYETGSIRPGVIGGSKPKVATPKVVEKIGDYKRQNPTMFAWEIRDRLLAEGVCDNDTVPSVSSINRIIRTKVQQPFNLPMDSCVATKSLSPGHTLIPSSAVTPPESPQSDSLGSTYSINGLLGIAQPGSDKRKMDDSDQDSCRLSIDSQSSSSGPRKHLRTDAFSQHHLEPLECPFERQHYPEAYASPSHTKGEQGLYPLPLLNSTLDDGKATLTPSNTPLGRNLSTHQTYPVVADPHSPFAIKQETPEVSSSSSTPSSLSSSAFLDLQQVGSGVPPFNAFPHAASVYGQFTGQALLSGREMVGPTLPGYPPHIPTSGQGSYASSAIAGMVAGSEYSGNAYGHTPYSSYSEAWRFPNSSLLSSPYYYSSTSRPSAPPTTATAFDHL

[14] = MC4R antagonists, dose response, counter-screen for LGR2 antagonist project, cell-based, plate reader, cherry pick (AID 743444); type: functional;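 further: transfected HEK 293 cells stimulated with alpha-MSH peptide; potency of inhibitors of the alpha-MSH evoked signal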
[15] = HepG2 cell cytotoxicity, dose response, cytotoxicity control, plate reader, cherry-pick, antagonist series (AID 743416); type: functional, cell-based

Structure (SMILES): Cc1cc(/C=C2/C(=O)NC(=O)N(c3ccccc3)C2=O)c(C)n1-c1ccc(F)cc1
- EC50 [1]: 77.3 µM (active)
- IC50 (Estrogen receptor): > 50 µM (not active)

Structure (SMILES): O=C(COC(=O)c1cccs1)NCc1ccco1
- IC50 (Estrogen receptor beta [2]): 8.95 µM (not active)
- IC50 (Estrogen receptor beta [3]): > 50 µM (not active)
- IC50 (Bcl-2-like protein 10): 85.1 µM (inactive)

Structure (SMILES): CCCC(C(=O)O)N1C(=O)/C(=C/c2cccn2C)SC1=S (stereo not given)
- EC50 [4]: > 100 µM (active)

Structure (SMILES): COc1ccc(CCNC(=O)c2ccc(-c3ccc([N+](=O)[O-])cc3Cl)o2)cc1
- CC50 [5]: 33.6 µM (active)
- IC50 (cells): 25.5 µM (active)

Structure (SMILES): COc1ccc([N+](=O)[O-])c(S(=O)(=O)c2ccccc2)n1
- AC50 [6]: 0.501 µM (active)
- IC50 [7]: 3.15 µM (active)
- AC50 (INS1): 7.12 µM (active)
- AC50 [8]: 4.61 µM (active)
- AC50 [9]: 8.06 µM (active)
- IC50 [10]: 1.42 µM (not active)
- IC50 [11]: 7.19 µM (active)
- IC50 [12]: 0.691 µM (active)
- AC50 [13]: 8.75 µM (active)
- AC50 (Paired box protein Pax-8): 8.18 µM (active)
- AC50 [14]: 4.27 µM (active)
- AC50 [15]: 7.56 µM (active)
